Measured values taken from US20080234262A1 (Wyeth, priority 2007, published 2008).

Tests used:
prostate line LNCap = assay: In vitro cell culture growth assay (MTS), LNCap; format: cell-based, human; conditions: Homo sapiens, LNCaP, 72 h, LNCap cells, three days after drug treatment
breast line MDA468 = assay: In vitro cell culture growth assay (MTS), MDA468; format: cell-based, human; conditions: Homo sapiens, 72 h, MDA468 cells, three days after drug treatment
Method: Human tumor cell lines used include prostate lines LNCap and PC3MM2, breast lines MDA468, MCF7, renal line HTB44 (A498), colon line HCT116, and ovarian line OVCAR3. Cells were plated in 96-well culture plates. One day following plating, the inhibitors were added to cells. Three days after drug treatment, viable cell densities were determined by metabolic conversion (by viable cells) of the dye MTS, a well established cell proliferation assay. The assays were performed using an assay kit purchased from Promega Corp. (Madison, Wis.) following the protocol supplied with the kit. The MTS assay results were read in a 96-well plate reader by measuring absorbance at 490 nm. The effect of each treatment was calculated as percent of control growth relative to the vehicle-treated cells grown in the same culture plate.

PI3K = PI3K (Homo sapiens, UniProt P42336); assay: Fluorescence polarization assay for PI3K; format: biochemical; conditions: PI3Kα; read-out: PI3Kα IC50;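 further: PI3K kinase reaction on PIP2 with ATP, 30-60 min, product sensed by GST-GRP with red probe in fluorescence polarization (mP), controls without enzyme and at zero time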
Sequence of PI3K (P42336 whole entry): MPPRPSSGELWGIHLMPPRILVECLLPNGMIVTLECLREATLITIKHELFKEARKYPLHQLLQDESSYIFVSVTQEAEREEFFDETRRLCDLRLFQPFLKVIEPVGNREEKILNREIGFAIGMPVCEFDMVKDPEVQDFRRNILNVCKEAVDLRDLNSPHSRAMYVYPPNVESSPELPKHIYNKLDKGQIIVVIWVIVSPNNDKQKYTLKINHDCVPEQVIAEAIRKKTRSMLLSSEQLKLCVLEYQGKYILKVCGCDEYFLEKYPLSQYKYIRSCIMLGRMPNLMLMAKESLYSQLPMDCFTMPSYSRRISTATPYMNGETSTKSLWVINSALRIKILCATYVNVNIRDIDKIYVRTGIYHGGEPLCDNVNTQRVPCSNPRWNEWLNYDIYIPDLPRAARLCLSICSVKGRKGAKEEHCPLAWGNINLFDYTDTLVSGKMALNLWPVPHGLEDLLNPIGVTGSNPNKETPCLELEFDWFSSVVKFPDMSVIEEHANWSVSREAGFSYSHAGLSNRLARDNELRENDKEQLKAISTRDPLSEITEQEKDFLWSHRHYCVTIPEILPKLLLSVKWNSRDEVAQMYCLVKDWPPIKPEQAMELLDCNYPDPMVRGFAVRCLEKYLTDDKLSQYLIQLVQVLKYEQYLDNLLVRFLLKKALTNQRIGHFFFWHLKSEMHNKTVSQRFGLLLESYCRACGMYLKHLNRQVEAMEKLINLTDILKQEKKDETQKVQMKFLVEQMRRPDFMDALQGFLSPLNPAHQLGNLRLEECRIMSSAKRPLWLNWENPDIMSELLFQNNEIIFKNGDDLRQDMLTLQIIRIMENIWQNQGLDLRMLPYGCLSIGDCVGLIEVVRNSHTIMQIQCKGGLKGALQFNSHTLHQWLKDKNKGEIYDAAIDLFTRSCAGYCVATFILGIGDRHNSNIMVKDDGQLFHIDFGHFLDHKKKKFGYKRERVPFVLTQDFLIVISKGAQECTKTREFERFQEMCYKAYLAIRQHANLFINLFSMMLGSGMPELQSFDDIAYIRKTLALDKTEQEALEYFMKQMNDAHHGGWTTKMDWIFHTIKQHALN
Sequence of PI3K (P27986 whole entry partner): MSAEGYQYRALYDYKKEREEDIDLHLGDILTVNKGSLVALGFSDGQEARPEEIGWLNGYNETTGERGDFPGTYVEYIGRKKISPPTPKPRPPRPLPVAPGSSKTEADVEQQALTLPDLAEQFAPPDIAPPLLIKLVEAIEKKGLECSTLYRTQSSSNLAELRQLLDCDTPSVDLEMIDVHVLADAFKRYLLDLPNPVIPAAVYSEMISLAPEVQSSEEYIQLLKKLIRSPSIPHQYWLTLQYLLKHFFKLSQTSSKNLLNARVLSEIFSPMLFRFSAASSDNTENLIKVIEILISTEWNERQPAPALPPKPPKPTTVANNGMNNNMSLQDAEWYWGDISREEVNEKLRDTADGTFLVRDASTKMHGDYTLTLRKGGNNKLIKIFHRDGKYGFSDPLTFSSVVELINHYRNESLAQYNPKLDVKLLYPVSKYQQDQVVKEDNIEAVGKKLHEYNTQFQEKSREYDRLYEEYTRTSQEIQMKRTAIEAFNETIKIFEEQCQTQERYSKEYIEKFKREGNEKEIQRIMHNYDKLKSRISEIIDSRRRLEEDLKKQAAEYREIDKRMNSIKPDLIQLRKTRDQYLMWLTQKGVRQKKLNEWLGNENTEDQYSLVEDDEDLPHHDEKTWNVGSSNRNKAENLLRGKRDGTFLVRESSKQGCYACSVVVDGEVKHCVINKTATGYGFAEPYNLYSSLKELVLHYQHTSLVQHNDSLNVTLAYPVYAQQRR

SMILES	IC50 (prostate line LNCap)	IC50 (breast line MDA468)	IC50 (PI3K)
Nc1ccc(-c2nc(N3CCOCC3)c3cnn(C4CCN(Cc5ccccc5)CC4)c3n2)cc1 [Compound 79]	4.5 µM	10 µM	–
CNC(=O)Nc1ccc(-c2nc(N3CCOCC3)c3cnn(C4CCN(C(=O)c5ccccc5)CC4)c3n2)cc1 [Example 336, 1-{4-[1-(1-benzoylpiperidin-4-yl)-4-morpholin-4-yl-1H-pyrazolo[3,4-d]pyrimidin-6-yl]phenyl}-3-methylurea]	0.027 µM	–	0.07 µM
CNC(=O)Nc1ccc(-c2nc(N3CCOCC3)c3cnn(C4CCN(C(=O)c5ccccc5Cl)CC4)c3n2)cc1 [Example 355, 1-(4-{1-[1-(2-chlorobenzoyl)piperidin-4-yl]-4-morpholin-4-yl-1H-pyrazolo[3,4-d]pyrimidin-6-yl}phenyl)-3-methylurea]	0.027 µM	–	0.079 µM
O=C(Nc1ccncc1)Nc1ccc(-c2nc(N3CCOCC3)c3cnn(C4CCN(C(=O)c5cccnc5)CC4)c3n2)cc1 [Example 344, 1-(4-{4-morpholin-4-yl-1-[1-(pyridin-3-ylcarbonyl)piperidin-4-yl]-1H-pyrazolo[3,4-d]pyrimidin-6-yl}phenyl)-3-pyridin-4-ylurea]	0.027 µM	–	0.015 µM
O=C(NCCF)Nc1ccc(-c2nc(N3CCOCC3)c3cnn(C4CCN(Cc5cccnc5)CC4)c3n2)cc1 [Example 315, 1-(2-fluoroethyl)-3-(4-{4-morpholin-4-yl-1-[1-(pyridin-3-ylmethyl)piperidin-4-yl]-1H-pyrazolo[3,4-d]pyrimidin-6-yl}phenyl)urea]	0.027 µM	–	0.338 µM
O=C(NCCF)Nc1ccc(-c2nc(N3CCOCC3)c3cnn(C4CCN(C(=O)c5ccccc5)CC4)c3n2)cc1 [Example 380, 1-{4-[1-(1-benzoylpiperidin-4-yl)-4-morpholin-4-yl-1H-pyrazolo[3,4-d]pyrimidin-6-yl]phenyl}-3-(2-fluoroethyl)urea]	0.027 µM	–	0.454 µM
O=C(Nc1ccc(-c2nc(N3CCOCC3)c3cnn(C4CCN(C(=O)c5cccnc5)CC4)c3n2)cc1)Nc1cccs1 [Example 413, 1-(4-{4-morpholin-4-yl-1-[1-(pyridin-3-ylcarbonyl)piperidin-4-yl]-1H-pyrazolo[3,4-d]pyrimidin-6-yl}phenyl)-3-(2-thienyl)urea]	0.035 µM	–	0.015 µM
CNC(=O)Nc1ccc(-c2nc(N3CCOCC3)c3cnn(C4CCN(C(=O)c5cccc(C)c5)CC4)c3n2)cc1 [Example 366, 1-methyl-3-(4-{1-[1-(3-methylbenzoyl)piperidin-4-yl]-4-morpholin-4-yl-1H-pyrazolo[3,4-d]pyrimidin-6-yl}phenyl)urea]	0.027 µM	–	0.073 µM
CCNC(=O)Nc1ccc(-c2nc(N3CCOCC3)c3cnn(C4CCN(C(=O)c5ccccc5)CC4)c3n2)cc1 [Example 381, 1-{4-[1-(1-benzoylpiperidin-4-yl)-4-morpholin-4-yl-1H-pyrazolo[3,4-d]pyrimidin-6-yl]phenyl}-3-ethylurea]	0.027 µM	–	0.355 µM
O=C(Nc1ccc(-c2nc(N3CCOCC3)c3cnn(C4CCN(C(=O)c5ccccc5)CC4)c3n2)cc1)Nc1cccnc1 [Example 379, 1-{4-[1-(1-benzoylpiperidin-4-yl)-4-morpholin-4-yl-1H-pyrazolo[3,4-d]pyrimidin-6-yl]phenyl}-3-pyridin-3-ylurea]	0.027 µM	–	0.035 µM
O=C(Nc1ccc(-c2nc(N3CCOCC3)c3cnn(C4CCN(C(=O)c5cccnc5)CC4)c3n2)cc1)Nc1cccnc1 [Example 302, 1-(4-{4-morpholin-4-yl-1-[1-(pyridin-3-ylcarbonyl)piperidin-4-yl]-1H-pyrazolo[3,4-d]pyrimidin-6-yl}phenyl)-3-pyridin-3-ylurea]	0.2 µM	–	0.032 µM
CCNC(=O)Nc1ccc(-c2nc(N3CCOCC3)c3cnn(C4CCN(Cc5ccccc5)CC4)c3n2)cc1 [Compound 499, 1-{4-[1-(1-benzylpiperidin-4-yl)-4-morpholin-4-yl-1H-pyrazolo[3,4-d]pyrimidin-6-yl]phenyl}-3-ethylurea]	–	0.35 µM	–
O=C(Nc1ccc(-c2nc(N3CCOCC3)c3cnn(C4CCN(Cc5cccnc5)CC4)c3n2)cc1)OCCO [Compound 924, 2-hydroxyethyl (4-{4-morpholin-4-yl-1-[1-(pyridin-3-ylmethyl)piperidin-4-yl]-1H-pyrazolo[3,4-d]pyrimidin-6-yl}phenyl)carbamate]	–	0.11 µM	–
CNC(=O)Nc1ccc(-c2nc(N3CCOCC3)c3cnn(C4CCN(C(=O)OC)CC4)c3n2)cc1 [Example 476, methyl 4-(6-{4-[(methylcarbamoyl)amino]phenyl}-4-morpholin-4-yl-1H-pyrazolo[3,4-d]pyrimidin-1-yl)piperidine-1-carboxylate]	–	0.1 µM	–
CNC(=O)Nc1ccc(-c2nc(N3CCOCC3)c3cnn(C4CCN(C(=O)OC)CC4)c3n2)cc1 [Compound 721, methyl 4-(6-{4-[(methylcarbamoyl)amino]phenyl}-4-morpholin-4-yl-1H-pyrazolo[3,4-d]pyrimidin-1-yl)piperidine-1-carboxylate]	–	0.08 µM	–
CNC(=O)Cc1ccc(-c2nc(N3CCOCC3)c3cnn(C4CCN(Cc5ccccc5)CC4)c3n2)cc1 [Compound 371, 2-{4-[1-(1-benzylpiperidin-4-yl)-4-morpholin-4-yl-1H-pyrazolo[3,4-d]pyrimidin-6-yl]phenyl}-N-methylacetamide]	–	10 µM	–
O=C(NCCO)Nc1ccc(-c2nc(N3CCOCC3)c3cnn(C4CCN(Cc5ccccc5)CC4)c3n2)cc1 [Compound 510, 1-{4-[1-(1-benzylpiperidin-4-yl)-4-morpholin-4-yl-1H-pyrazolo[3,4-d]pyrimidin-6-yl]phenyl}-3-(2-hydroxyethyl)urea]	–	0.05 µM	–
CNC(=O)Cc1ccc(-c2nc(N3CCOCC3)c3cnn(C4CCN(Cc5ccccc5)CC4)c3n2)cc1 [Compound 616, 2-{4-[1-(1-benzylpiperidin-4-yl)-4-morpholin-4-yl-1H-pyrazolo[3,4-d]pyrimidin-6-yl]phenyl}-N-methylacetamide]	–	10 µM	–
CCNC(=O)Nc1ccc(-c2nc(N3CCOCC3)c3cnn(C4CCN(Cc5cccnc5)CC4)c3n2)cc1 [Example 318, 1-ethyl-3-(4-{4-morpholin-4-yl-1-[1-(pyridin-3-ylmethyl)piperidin-4-yl]-1H-pyrazolo[3,4-d]pyrimidin-6-yl}phenyl)urea]	0.027 µM	–	0.187 µM
CC(C)(C)OC(=O)N1CCC(n2ncc3c(N4CCOCC4)nc(-c4ccc(NC(=O)NC5CC5)cc4)nc32)CC1 [Compound 767, tert-butyl 4-(6-{4-[(cyclopropylcarbamoyl)amino]phenyl}-4-morpholin-4-yl-1H-pyrazolo[3,4-d]pyrimidin-1-yl)piperidine-1-carboxylate]	–	0.7 µM	–
CONC(=O)Nc1ccc(-c2nc(N3CCOCC3)c3cnn(C4CCN(Cc5ccccc5)CC4)c3n2)cc1 [Compound 286, 1-{4-[1-(1-benzylpiperidin-4-yl)-4-morpholin-4-yl-1H-pyrazolo[3,4-d]pyrimidin-6-yl]phenyl}-3-methoxyurea]	–	0.2 µM	–
O=C(Nc1ccc(-c2nc(N3CCOCC3)c3cnn(C4CCN(Cc5cccnc5)CC4)c3n2)cc1)Nc1cccnc1 [Example 314, 1-(4-{4-morpholin-4-yl-1-[1-(pyridin-3-ylmethyl)piperidin-4-yl]-1H-pyrazolo[3,4-d]pyrimidin-6-yl}phenyl)-3-pyridin-3-ylurea]	0.027 µM	–	0.02 µM
